Laboratory results: patent US12352767B2, “Method of treating cognitive decline associated with neurological diseases based on a decrease in FLT4 expression or activity” (University of Virginia Patent Foundation, priority 2018, dated 2025)
“Also recorded” adds a separate entry of the source.

Assays:
5×FAD mice = experiment: Amyloid pathology in meninges and hippocampus of 5xFAD mice (Aβ immunostaining); assay type: in vivo
Protocol: Male or female wild-type mice (C57BL/6J background) were either bred in-house, purchased from the Jackson Laboratory (Bar Harbor, Maine, USA) or provided by the National Institutes of Health/National Institute on Aging (Bethesda, MD, USA). All mice were maintained in the animal facility for habituation for at least 1 week prior to the start of the manipulation/experimentation. C57BL/6J wild-type mice were tested at 2-3, 12-14 and 20-24 months of age. Male hemizygous B6.Cg-Tg(PDGFB-APPSwInd)20Lms/2Mmjax (J20, JAX stock #006293) and B6.Cg-Tg(APPSwFILon,PSEN1*M146L*L286V)6799Vas/Mmjax (5×FAD, JAX stock #008730) were purchased from the Jackson Laboratory and bred in-house on a C57BL/6J background. […] 5×FAD hemizygous mice overexpress the transgene constructs under neural-specific elements of the mouse thymocyte differentiation antigen 1 promoter and present accelerated accumulation of Aβ42 and deposition of amyloid and gliosis in the brain starting at 2 months of age, with dramatic amyloid plaque load without major behavioral deficits at 5 months^45. In-house bred male transgene carriers and non-carrier (WT) littermates were used at different ages that are indicated throughout the manuscript. Prox1^LacZ mice (designated Prox1^+/− mice in this manuscript) on a NMRI background (kindly provided by Dr. Guillermo Oliver, Northwestern University, Chicago, IL) were also bred in-house and used in this study as a constitutive model for dysfunctional lymphatic vessels^46. Mice of all strains were housed in an environment with controlled temperature and humidity, on 12 hours light/dark cycles (lights on at 7:00), and fed with regular rodent's chow and sterilized tap water ad libitum. All experiments were approved by the Institutional Animal Care and Use Committee of the University of Virginia.

[1] = system: brain/meningeal vasculature; experiment: Photoacoustic imaging of brain/meningeal blood flow and oxygenation; assay type: in vivo; details: 5xFAD mice, 1 week after Visudyne/photoconversion
Excerpt: Adult mice were maintained under anesthesia with 1.5% isoflurane and at a constant body temperature with the aid of a heating pad. A surgical incision was made in the scalp and the fascia was removed to expose the skull. One day prior to the imaging, the skull over the region of interest was thinned to the desired thickness (˜100 μm). Mice were then imaged by multi-parametric photoacoustic microscopy, which is capable of simultaneously image oxygen saturation of hemoglobin (sO2) and blood flow speed as described previously^50. Using the oxy-hemoglobin and deoxy-hemoglobin values, recorded using two nanosecond-pulsed lasers (532 and 559 nm), it is possible to compute the final sO2. Correlation analysis of adjacent A-line signals allows the quantification of blood flow speed within individual vessels. By segmenting major vessels within the region of interest, average values of the blood flow speed and sO2 were extracted for quantitative analysis.

brain parenchyma = experiment: Efflux of fluorescent tracers injected into the brain parenchyma; assay type: in vivo, mice; details: 7 days after Visudyne/photoconversion, vs both control groups
Protocol: An incision was made in the skin to expose the skull and a hole was drilled at +1.5 mm in the anterior-posterior axis and −1.5 mm in the medial-lateral axis relative to bregma. Then, using a Hamilton syringe (coupled to a 33-gauge needle) placed at +2.5 mm in the dorsal-ventral axis (relative to bregma), 1 μL of either Alexa Fluor® 647 conjugated OVA (at 0.5 mg/mL), HiLyte™ Fluor 647 conjugated Aβ42 (at 0.05 μg/mL, AnaSpec, Inc.) or BODIPY™ FL conjugated low density lipoprotein (LDL) from human plasma (at 0.1 mg/mL, Thermo Fisher Scientific) in artificial CSF were injected at a rate of 0.2 μL/min into the brain parenchyma. […] After injecting, the syringe was left in place for additional 5 min to prevent back-flow.

[2] = Visudyne/photoconversion for 1.5 months

Q: What does the source list for verteporfin [Visudyne]?
A: amyloid deposition in the meninges (5×FAD mice; Visudyne/photoconversion every 3 weeks for 1.5 months from ~2 months of age): marked deposition of amyloid in the meninges; brain amyloid burden in the hippocampi (5×FAD mice; [2]): aggravation of brain amyloid burden; macrophage recruitment to Aβ aggregates in meninges (5×FAD mice; [2]): macrophage recruitment to large Aβ aggregates; blood flow in brain/meninges [1]: no differences; also recorded: did not affect; blood oxygenation in brain/meninges [1]: no differences; also recorded: did not affect; levels of remaining tracers in brain parenchyma (Aβ42-HiLyte647, OVA-A647, LDL-BODIPY FL) (brain parenchyma; one hour after stereotaxic injection): higher levels of remnants; Aβ42-HiLyte647 area fraction in the injected brain hemisphere (brain parenchyma): significantly higher level; LDL-BODIPY FL area fraction in the injected brain hemisphere (brain parenchyma): significantly higher level; OVA-A647 area fraction in the injected brain hemisphere (brain parenchyma): significantly higher level
